Laboratory results published in patent US20170247693A1 (priority 2016, published 2017).
Like-named read-outs stand apart in the source and are kept apart here.

How the values were obtained:
HepG2 tumors = format: in vivo, SCID mice
caspase-3 [1] = format: cell-based; conditions: FLC4 infected with vACE-NT; normoxia; 72 h after administering DOX
caspase-3 [2] = format: cell-based, human; conditions: HepG2 infected with vACE-NT; normoxia; 72 h after administering DOX
[3] = system: uveal melanoma cells (Mel270, OMM2.3, OMM2.5, OMM1, 92.1); format: cell-based

SMILES: COc1cccc2c1C(=O)c1c(O)c3c(c(O)c1C2=O)C[C@@](O)(C(=O)CO)C[C@@H]3O[C@H]1C[C@H](N)[C@H](O)[C@H](C)O1 [DOX, Doxorubicin]
- reduction of tumor growth rate (HepG2 tumors; DOX 55 mg/kg IP twice a week, tumors infected with vACE-NT, light emission day 42 vs day 14): 45%
- effect on tumors (HepG2 tumors; DOX 75 mg/kg IP twice a week, even in vACE-NT infected tumors): almost completely eradicate the tumors
- growth rate of tumors on addition of DOX (HepG2 tumors; all tumors (vACE-NT, vACE-CREB, vACE-X3 infected), DOX 55 mg/kg): reduced the growth rate of all tumors
- increase of caspase-3 activation (caspase-3 [1]): 12 fold
- increase of caspase-3 activation (caspase-3 [2]): 35 fold
- cell death in uveal melanoma cells [3]: induce cell death
